ChEMBL document CHEMBL1130935, “Synthesis of a paclitaxel isomer: C-2-acetoxy-C-4-benzoate paclitaxel” (Bioorg Med Chem Lett, 1998)
Activity calls are given as the source filed them. The calls are words filed in the database; no cut-off is given here.

Target: Tubulin alpha chain (Sus scrofa) (UniProt P02550)
Experiment: Compound was tested for inhibitory activity against tubulin by tubulin polymerization assay; Inactive
Type: functional

Chain of Tubulin alpha chain (Sus scrofa) (P02550 whole entry, looked up): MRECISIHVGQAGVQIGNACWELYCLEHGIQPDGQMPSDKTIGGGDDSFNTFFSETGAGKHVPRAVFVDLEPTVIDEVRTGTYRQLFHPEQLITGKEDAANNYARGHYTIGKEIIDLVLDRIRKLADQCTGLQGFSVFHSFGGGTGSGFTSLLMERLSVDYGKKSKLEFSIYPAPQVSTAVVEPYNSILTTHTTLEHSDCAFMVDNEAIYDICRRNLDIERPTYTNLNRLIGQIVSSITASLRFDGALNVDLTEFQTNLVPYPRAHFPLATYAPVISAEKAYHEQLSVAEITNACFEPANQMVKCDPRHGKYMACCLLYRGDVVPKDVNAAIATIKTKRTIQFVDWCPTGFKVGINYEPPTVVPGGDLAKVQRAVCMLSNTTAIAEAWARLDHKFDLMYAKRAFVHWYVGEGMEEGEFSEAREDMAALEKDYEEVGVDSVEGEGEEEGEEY

- Activity: inactive
SMILES: CC(=O)O[C@H]1C(=O)[C@]2(C)[C@@H](O)CC3OC[C@@]3(OC(=O)c3ccccc3)[C@H]2[C@H](OC(C)=O)[C@]2(O)C[C@H](OC(=O)[C@H](O)[C@@H](NC(=O)c3ccccc3)c3ccccc3)C(C)=C1C2(C)C (stereo partly specified)
